From ChEMBL document CHEMBL3044783, “Effects of pyrrolizidine alkaloids on the performance of plant-parasitic and free-living nematodes” (Pest Manag Sci, 2009)
Values after ≈ are worked out from the molar mass of the structure shown. Active and inactive are the calls of the source. No cut-off for these calls is given here.

Legend:
Rhabditis sp. [1] = assay: Repellent activity against juvenile stage of Rhabditis sp. at 0.1 mg/mL after 20 hr by stereomicroscopic analysis (reference value: 48%); type: functional
Rhabditis sp. [2] = assay: Repellent activity against juvenile stage of Rhabditis sp. at 1 mg/mL after 20 hr by stereomicroscopic analysis (reference value: 48%); type: functional
[3] = tested on: Phasmarhabditis hermaphrodita; assay: Nematicidal activity against juvenile stage of Phasmarhabditis hermaphrodita of assessed as inhibition of mobility incubated for 168 hr followed by compound wash out measured after 24 hr; type: functional; settings: Pellioditis hermaphrodita
Pratylenchus penetrans [4] = assay: Nematicidal activity against juvenile stage of Pratylenchus penetrans assessed as inhibition of mobility incubated for 168 hr followed by compound wash out measured after 24 hr; type: functional
Heterodera schachtii [5] = assay: Nematicidal activity against juvenile stage of Heterodera schachtii assessed as inhibition of mobility incubated for 168 hr followed by compound wash out measured after 24 hr; type: functional
Meloidogyne incognita [6] = assay: Nematicidal activity against juvenile stage of Meloidogyne incognita (root-knot nematode) assessed as inhibition of mobility incubated for 168 hr followed by compound wash out measured after 24 hr; type: functional
[7] = Stability of the compound assessed as conversion of N-oxide to free base at 5 mg/mL after 24 to 168 hr by thin layer chromatographic analysis under UV light and cold temperature; type: physicochemical
Meloidogyne incognita [8] = assay: Ovicidal activity against Meloidogyne incognita (root-knot nematode) assessed as egg hatching at 1 mg/mL after 336 hr (reference value: 54%); type: functional
Meloidogyne incognita [9] = assay: Ovicidal activity against Meloidogyne incognita (root-knot nematode) assessed as egg hatching at 1 mg/mL after 24 hr (reference value: 3%); type: functional
Meloidogyne incognita [10] = assay: Repellent activity against juvenile stage of Meloidogyne incognita (root-knot nematode) at 0.1 mg/mL after 40 hr by stereomicroscopic analysis (reference value: 51%); type: functional
Meloidogyne incognita [11] = assay: Repellent activity against juvenile stage of Meloidogyne incognita (root-knot nematode) at 1 mg/mL after 40 hr by stereomicroscopic analysis (reference value: 51%); type: functional
Meloidogyne incognita [12] = assay: Repellent activity against juvenile stage of Meloidogyne incognita (root-knot nematode) at 0.1 mg/mL after 20 hr by stereomicroscopic analysis (reference value: 50%); type: functional
Meloidogyne incognita [13] = assay: Repellent activity against juvenile stage of Meloidogyne incognita (root-knot nematode) at 1 mg/mL after 20 hr by stereomicroscopic analysis (reference value: 50%); type: functional
Rhabditis sp. [14] = assay: Repellent activity against juvenile stage of Rhabditis sp. at 0.1 mg/mL after 40 hr by stereomicroscopic analysis (reference value: 50%); type: functional
Rhabditis sp. [15] = assay: Repellent activity against juvenile stage of Rhabditis sp. at 1 mg/mL after 40 hr by stereomicroscopic analysis (reference value: 50%); type: functional
[16] = Stability of the compound assessed as apperance of pyrroles at 5 mg/mL after 24 to 168 hr by thin layer chromatographic analysis under hot temperature; type: physicochemical
[17] = Stability of the compound assessed as apperance of pyrroles at 5 mg/mL after 24 to 168 hr by thin layer chromatographic analysis under UV light and cold temperature; type: physicochemical
[18] = Stability of the compound assessed as apperance of pyrroles at 5 mg/mL after 24 to 168 hr by thin layer chromatographic analysis under UV light and hot temperature; type: physicochemical
[19] = Stability of the compound assessed as apperance of new pyrrolizidine alkaloids at 5 mg/mL after 24 to 168 hr by thin layer chromatographic analysis under cold temperature; type: physicochemical
[20] = Stability of the compound assessed as apperance of new pyrrolizidine alkaloids at 5 mg/mL after 24 to 168 hr by thin layer chromatographic analysis under hot temperature; type: physicochemical
[21] = Stability of the compound assessed as apperance of new pyrrolizidine alkaloids at 5 mg/mL after 24 to 168 hr by thin layer chromatographic analysis under UV light and cold temperature; type: physicochemical
[22] = Stability of the compound assessed as apperance of new pyrrolizidine alkaloids at 5 mg/mL after 24 to 168 hr by thin layer chromatographic analysis under UV light and hot temperature; type: physicochemical
[23] = Stability of the compound assessed as conversion of N-oxide to free base at 5 mg/mL after 24 to 168 hr by thin layer chromatographic analysis under cold temperature; type: physicochemical
[24] = Stability of the compound assessed as conversion of N-oxide to free base at 5 mg/mL after 24 to 168 hr by thin layer chromatographic analysis under hot temperature; type: physicochemical
[25] = Stability of the compound assessed as conversion of N-oxide to free base at 5 mg/mL after 24 to 168 hr by thin layer chromatographic analysis under UV light and hot temperature; type: physicochemical
[26] = Stability of the compound assessed as apperance of pyrroles at 5 mg/mL after 24 to 168 hr by thin layer chromatographic analysis under cold temperature; type: physicochemical
Rhabditis sp. [27] = assay: Nematicidal activity against juvenile stage of Rhabditis sp. assessed as inhibition of mobility after 168 hr; type: functional
[28] = tested on: Phasmarhabditis hermaphrodita; assay: Nematicidal activity against juvenile stage of Phasmarhabditis hermaphrodita of assessed as inhibition of mobility after 168 hr; type: functional; settings: Pellioditis hermaphrodita
Pratylenchus penetrans [29] = assay: Nematicidal activity against juvenile stage of Pratylenchus penetrans assessed as inhibition of mobility after 168 hr; type: functional
Meloidogyne incognita [30] = assay: Nematicidal activity against juvenile stage of Meloidogyne incognita (root-knot nematode) assessed as inhibition of mobility after 168 hr; type: functional
Heterodera schachtii [31] = assay: Nematicidal activity against juvenile stage of Heterodera schachtii assessed as inhibition of mobility after 168 hr; type: functional
[32] = tested on: Phasmarhabditis hermaphrodita; assay: Nematicidal activity against juvenile stage of Phasmarhabditis hermaphrodita of assessed as inhibition of mobility after 20 hr; type: functional, organism-based
Rhabditis sp. [33] = assay: Nematicidal activity against juvenile stage of Rhabditis sp. assessed as inhibition of mobility after 20 hr; type: functional, organism-based
Pratylenchus penetrans [34] = assay: Nematicidal activity against juvenile stage of Pratylenchus penetrans assessed as inhibition of mobility after 20 hr; type: functional
Meloidogyne incognita [35] = assay: Nematicidal activity against juvenile stage of Meloidogyne incognita (root-knot nematode) assessed as inhibition of mobility after 20 hr; type: functional
Heterodera schachtii [36] = assay: Nematicidal activity against juvenile stage of Heterodera schachtii assessed as inhibition of mobility after 20 hr; type: functional
Rhabditis sp. [37] = assay: Nematicidal activity against juvenile stage of Rhabditis sp. assessed as reduction of fecundity at 0.01 mg/mL after 72 hr by stereomicroscopic analysis relative to untreated control; type: functional, organism-based
Rhabditis sp. [38] = assay: Nematicidal activity against juvenile stage of Rhabditis sp. assessed as reduction of fecundity at 0.1 mg/mL after 72 hr by stereomicroscopic analysis relative to untreated control; type: functional, organism-based
Rhabditis sp. [39] = assay: Nematicidal activity against juvenile stage of Rhabditis sp. assessed as reduction of nematode development at 0.01 mg/mL after 72 hr by stereomicroscopic analysis (reference value: 62%); type: functional; parameters: scale not given: the % may be the effect or the level left
Rhabditis sp. [40] = assay: Nematicidal activity against juvenile stage of Rhabditis sp. assessed as reduction of nematode development at 0.1 mg/mL after 72 hr by stereomicroscopic analysis (reference value: 62%); type: functional; parameters: scale not given: the % may be the effect or the level left
Rhabditis sp. [41] = assay: Nematicidal activity against juvenile stage of Rhabditis sp. assessed as reduction of nematode development at 1 mg/mL after 72 hr by stereomicroscopic analysis (reference value: 62%); type: functional; parameters: scale not given: the % may be the effect or the level left

In the case of C[C@H]1C(=O)O[C@@H]2CC[N+]3([O-])CC=C(COC(=O)[C@](C)(O)[C@]1(C)O)[C@H]23 (stereo partly drawn) [MONOCROTALINE N-OXIDE], the Repellency (Rhabditis sp. [1]) is reported as 89%, the Repellency (Rhabditis sp. [2]) is reported as 95% and the MIC50 [3] is reported as 17500 µg/mL (≈ 51.3 mM). For the same compound, the MIC50 (Pratylenchus penetrans [4]) was “inactive”, the MIC50 (Heterodera schachtii [5]) was 37100 µg/mL (≈ 109 mM) and the MIC50 (Meloidogyne incognita [6]) was “inactive”. The Stability [7] was “Stable”, the Activity (Meloidogyne incognita [8]) was 16% and the Activity (Meloidogyne incognita [9]) was 7%. The Repellency (Meloidogyne incognita [10]) was 51%, the Repellency (Meloidogyne incognita [11]) was 56% and the Repellency (Meloidogyne incognita [12]) was 52%. It also gave a Repellency (Meloidogyne incognita [13]) of 54%, a Repellency (Rhabditis sp. [14]) of 90% and a Repellency (Rhabditis sp. [15]) of 100%. For the same compound, the Stability [16] was “Stable”, the Stability [17] was “Stable” and the Stability [18] was “Stable”. The Stability [19] was “Stable”, the Stability [20] was “Stable” and the Stability [21] was “Stable”. The Stability [22] was “Stable”, the Stability [23] was “Stable” and the Stability [24] was “Stable”. For the same compound, the Stability [25] was “Stable”, the Stability [26] was “Stable” and the MIC50 (Rhabditis sp. [27]) was 21200 µg/mL (≈ 62.1 mM). The MIC50 [28] was 13700 µg/mL (≈ 40.1 mM), the MIC50 (Pratylenchus penetrans [29]) was “inactive” and the MIC50 (Meloidogyne incognita [30]) was “inactive”. For the same compound, the MIC50 (Heterodera schachtii [31]) was 700 µg/mL (≈ 2.05 mM), the MIC50 [32] was “inactive” and the MIC50 (Rhabditis sp. [33]) was “inactive”. For the same compound, the MIC50 (Pratylenchus penetrans [34]) was “inactive”, the MIC50 (Meloidogyne incognita [35]) was “inactive” and the MIC50 (Heterodera schachtii [36]) was “inactive”.
Compound C/C=C(/C)C(=O)O[C@H]1CCN2CC=C(COC(=O)[C@](O)([C@H](C)OC)C(C)(C)O)[C@H]12 [LASIOCARPINE] has an MIC50 (Heterodera schachtii [5]) of 1000 µg/mL (≈ 2.43 mM), an MIC50 (Meloidogyne incognita [6]) of 1000 µg/mL (≈ 2.43 mM) and an MIC50 (Meloidogyne incognita [30]) of 500 µg/mL (≈ 1.22 mM). For the same compound, the MIC50 (Heterodera schachtii [31]) was 3800 µg/mL (≈ 9.23 mM), the MIC50 (Meloidogyne incognita [35]) was “inactive” and the MIC50 (Heterodera schachtii [36]) was “inactive”.
Work on CO[C@H](C)[C@](O)(C(=O)OCC1=CCN2CC[C@H](O)[C@@H]12)C(C)C [HELIOTRINE] yielded an MIC50 (Pratylenchus penetrans [4]) of 3300 µg/mL (≈ 10.5 mM), an MIC50 (Heterodera schachtii [5]) of 1100 µg/mL (≈ 3.51 mM) and an MIC50 (Meloidogyne incognita [6]) of 800 µg/mL (≈ 2.55 mM). For the same compound, the Activity (Rhabditis sp. [37]) was “Active”, the Activity (Rhabditis sp. [38]) was “Active” and the Activity (Rhabditis sp. [39]) was 58%. It also gave an Activity (Rhabditis sp. [40]) of 32%, an Activity (Rhabditis sp. [41]) of 0% and an MIC50 (Rhabditis sp. [27]) of 100 µg/mL (≈ 0.319 mM). The MIC50 (Pratylenchus penetrans [29]) was 4800 µg/mL (≈ 15.3 mM), the MIC50 (Meloidogyne incognita [30]) was 300 µg/mL (≈ 0.957 mM) and the MIC50 (Heterodera schachtii [31]) was 2100 µg/mL (≈ 6.7 mM). The MIC50 (Rhabditis sp. [33]) was “inactive”, the MIC50 (Pratylenchus penetrans [34]) was 49800 µg/mL (≈ 159 mM) and the MIC50 (Meloidogyne incognita [35]) was 57900 µg/mL (≈ 185 mM). For the same compound, the MIC50 (Heterodera schachtii [36]) was “inactive”.
